Laboratory results reported in patent US20030215878A1, “Novel G protein-coupled purinergic receptor, GAVE17” (priority 2002, published 2003).

How the values were obtained:
GAVE17 [1] = molecular target: T1, GAVE17 (Homo sapiens, UniProt Q9BPV8); experiment: Nucleotide ligand activation of and affinity for GAVE17 in transformed NIH 3T3 cells; assay type: cell-based; set-up: expressed in transfected cells; host or cells: NIH 3T3; conditions: for Kd: transformed NIH 3T3 cells
T1 sequence (Q9BPV8 1-333 isoform Q9BPV8-2): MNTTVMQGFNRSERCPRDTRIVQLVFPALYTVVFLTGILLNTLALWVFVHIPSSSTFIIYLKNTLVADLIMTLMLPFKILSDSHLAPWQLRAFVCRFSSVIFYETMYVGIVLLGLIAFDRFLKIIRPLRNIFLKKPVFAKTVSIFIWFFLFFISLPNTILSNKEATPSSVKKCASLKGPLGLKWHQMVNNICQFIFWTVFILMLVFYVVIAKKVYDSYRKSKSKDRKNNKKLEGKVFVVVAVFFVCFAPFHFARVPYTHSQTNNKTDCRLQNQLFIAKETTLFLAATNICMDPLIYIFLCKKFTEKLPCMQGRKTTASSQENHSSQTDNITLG

GAVE17 [2] = molecular target: T1, GAVE17; experiment: Agonist assay utilizing FLIPR, NIH 3T3 cell line transfected with hGAVE17 (Ca2+ fluorescence); assay type: cell-based; set-up: host or cells: Gα16-coupled NIH 3T3; conditions: NIH313 cell line transfected with PEAK8 expression vector comprising SEQ ID NO:1; FIGS. 3a-d
Source text: To screen for agonists of human GAVE17, hGAVE17 is coupled artificially to a Gq mechanism. Activation of the Gq mechanism stimulates the release of Ca^2+ from sarcoplasmic reticulum vesicles within the cell. The Ca^2+ is released into the cytoplasm where it can be detected using Ca^2+ chelating dyes. A Fluorometric Imaging Plate Reader or FLIPR® apparatus (Molecular Devices) is used to monitor any resulting changes in fluorescence. The activity of an agonist is reflected by an increase in fluorescence.
In a particular example, NIH 3T3 cells expressing hGAVE17 are pre-engineered to express an indiscriminate form of Gq protein (Gα16). To prepare such cells, Gα16-coupled NIH 3T3 cells are obtained commercially (Molecular Devices LIVEWARE™ cells, Catalog No. RD-HGA16) and the protocol in Example 2 followed to facilitate expression of hGAVE17 in those cells.
The cells are maintained in log phase of growth at 37° C. and 5% CO2 in F12 Ham's media (Gibco/BRL, Catalog No. 11765-054) containing 10% fetal bovine serum, 100 lU/ml penicillin (Gibco/BRL, Catalog No. 15140-148), 100 μg/ml streptomycin (Catalog No. 15140-148, Gibco/BRL), 400 μg/ml genetecin (G418) (Gibco/BRL, Catalog No. 10131-035) and 200 μg/ml zeocin (Invitrogen, Catalog No. R250-05). One day prior to an assay, 12,500 cells/well of the NIH 3T3 cells are plated onto 384-well clear-bottomed assay plates with a well volume of 50 μl (Greiner/Marsh, Catalog No. N58102) using a 96/384 Multidrop device (Labsystems, Type 832). The cells are incubated at 37° C. in a humidified 5% CO2 incubator (Forma Scientific CO2 water-jacketed incubator Model 3110).
The following stock solutions are prepared: a 1 M stock solution of Hepes (pH 7.5) (Gibco/BRL, Catalog No. 15630-080); a 250 mM stock solution of probenicid (Sigma, Catalog No. P8761) made in 1 N NaOH; and a 1 mM stock solution of Fluo 4-AM Dye (Molecular Probes, Catalog No. F1 4202) made in DMSO (Sigma D2650). Reaction buffer is prepared with 1000 ml Hank's balanced salt solution (Fisher/Mediatech, Catalog No. MT21023), 20 ml of the 1 M Hepes stock solution and 10 ml of the 250 mM probenicid stock solution. […]
A compound library containing possible agonists such as various purine derivatives or purine mimetics is tested at a concentration of 10 μM in physiological salt buffer. Changes in fluorescence are measured for 10 seconds prior to compound addition. After the addition of the compound, fluorescence is measured every second for the first minute followed by exposures taken every six seconds for a total experimental analysis time of three minutes. […]

SMILES	activation of GAVE17 (GAVE17 [1])	Kd (GAVE17 [1])	agonist activity (FLIPR units vs log molar concentration) (GAVE17 [2])
Nc1ncnc2c1ncn2[C@@H]1O[C@H](COP(=O)(O)OP(=O)(O)OP(=O)(O)O)[C@@H](O)[C@H]1O [ATP]	activate	0.8 µM	agonist activity
Nc1nc2c(ncn2[C@@H]2O[C@H](COP(=O)(O)OP(=O)(O)O)[C@@H](O)[C@H]2O)c(=O)[nH]1 [GDP]	activate	65 µM	–

The remaining compounds from weak to strong by Kd (GAVE17 [1]), led by results:

activation of GAVE17 (GAVE17 [1])	Kd (GAVE17 [1])	agonist activity (FLIPR units vs log molar concentration) (GAVE17 [2])	SMILES
activate	26 µM	agonist activity	Nc1ncnc2c1ncn2[C@@H]1O[C@H](COP(=O)(O)OP(=O)(O)O)[C@@H](O)[C@H]1O [ADP]
activate	10 µM	agonist activity	O=c1ccn([C@@H]2O[C@H](COP(=O)(O)OP(=O)(O)O)[C@@H](O)[C@H]2O)c(=O)[nH]1 [UDP]
activate	6.9 µM	agonist activity	O=c1ccn([C@@H]2O[C@H](COP(=O)(O)OP(=O)(O)OP(=O)(O)O)[C@@H](O)[C@H]2O)c(=O)[nH]1 [UTP]
